Assay results reported in US20240043435A1, “TYK-2 INHIBITOR” (BEIGENE, LTD., priority 2020, published 2024).

Columns and labels:
[1] = target: T1, TYK2-JH2 (aa 575-869, in-house) protein (Homo sapiens, UniProt P29597); test: TYK2-JH2 biochemical assay (HTRF probe displacement); assay type: binding; settings: Biochemical assay; read-out: TYK2-JH2 IC50
T1 construct: TYK2-JH2 (aa 575-869, in-house) protein; made in house
Summary of the method: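 HTRF probe-displacement format: compound dilutions (10 points, 5-fold, from 500 uM in DMSO at 500×) were combined with 0.2 nM TYK2-JH2 protein for 0.5 h at room temperature in HEPES pH 7.5 buffer with MgCl2, BSA, DTT and Brij-35. Percent inhibition came from the 615/665 nm fluorescence ratio, fitted to a four-parameter logistic for IC50.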

[2] = tested on: JAK2, TYK2/p-STAT4 (Tyr693) activated by IL-12 in NK-92 cell line; test: IL-12-JAK2, TYK2/p-STAT4 (Tyr693) inhibition IC50 cellular assay; assay type: cell-based; settings: NK92, Cellular assay; read-out: pSTAT4/IL-12 IC50
Summary of the method: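 p-STAT4 (Tyr693) in lysates was measured by AlphaLISA SureFire Ultra after a 30 min IL-12 challenge (40 ng/ml final) at 37° C. Overnight-starved, IL-2-free NK-92 cells had been pretreated 1 h with compound at 10000 to 0.61 nM (4-fold, 8 points). IC50 values came from four-parameter logistic fitting.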

pSTAT5/GM-CSF = pSTAT5/GM-CSF cellular assay (JAK2 selectivity); assay type: cell-based; settings: for Selectivity fold (TYK2/JAK2): pSTAT5/GM-CSF IC50 over pSTAT4/IL-12 IC50

T1 sequence (P29597 575-869): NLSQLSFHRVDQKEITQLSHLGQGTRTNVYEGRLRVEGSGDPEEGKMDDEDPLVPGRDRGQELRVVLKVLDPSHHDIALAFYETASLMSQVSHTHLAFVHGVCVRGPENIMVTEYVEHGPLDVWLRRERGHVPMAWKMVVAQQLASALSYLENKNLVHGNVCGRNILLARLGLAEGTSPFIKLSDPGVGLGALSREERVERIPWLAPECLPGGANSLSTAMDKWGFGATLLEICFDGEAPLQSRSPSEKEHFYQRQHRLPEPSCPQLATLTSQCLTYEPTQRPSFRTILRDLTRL

Structure (SMILES): COc1cc(Nc2cc(NC(C)=O)ncc2-c2cc(C)n(C)n2)nc(S(C)(=O)=O)c1 [Example N4, N-(5-(1,5-dimethyl-1H-pyrazol-3-yl)-4-((4-methoxy-6-(methylsulfonyl)pyridin- -2-yl)amino)pyridin-2-yl)acetamide]
- IC50 [1]: 0.029 nM
- IC50 [2]: 0.137 nM
- IC50 (pSTAT5/GM-CSF): > 10000 nM
- Selectivity fold (TYK2/JAK2) (pSTAT5/GM-CSF): >72992 fold

Structure (SMILES): COCCOc1cc(Nc2cc(NC(C)=O)ncc2-c2cc(C)n(C)n2)nc(S(C)(=O)=O)c1 [Example N5, N-(5-(1,5-dimethyl-1H-pyrazol-3-yl)-4-((4-(2-methoxyethoxy)-6-(methylsulfonyl)pyridin-2-yl)amino)pyridin-2-yl)acetamide]
- IC50 [1]: 0.039 nM
- IC50 [2]: 0.212 nM
- IC50 (pSTAT5/GM-CSF): > 10000 nM
- Selectivity fold (TYK2/JAK2) (pSTAT5/GM-CSF): >47169 fold

Structure (SMILES): CO[C@H](C)COc1cc(Nc2cc(NC(C)=O)ncc2-c2cc(C)n(C)n2)nc(S(C)(=O)=O)c1 [Example N6, (R)-N-(5-(1,5-dimethyl-1H-pyrazol-3-yl)-4-((4-(2-methoxypropoxy)-6-(methylsulfonyl)pyridin-2-yl)amino)pyridin-2-yl)acetamide]
- IC50 [1]: 0.039 nM
- IC50 [2]: 0.274 nM
- IC50 (pSTAT5/GM-CSF): > 10000 nM
- Selectivity fold (TYK2/JAK2) (pSTAT5/GM-CSF): >36496 fold

Structure (SMILES): CCOc1cc(Nc2cc(NC(C)=O)ncc2-c2cc(C)n(C)n2)nc(S(C)(=O)=O)c1 [Example N7, N-(5-(1,5-dimethyl-1H-pyrazol-3-yl)-4-((4-ethoxy-6-(methylsulfonyl)pyridin-2-yl)amino)pyridin-2-yl)acetamide]
- IC50 [1]: 0.024 nM
- IC50 [2]: 1.43 nM
- IC50 (pSTAT5/GM-CSF): > 10000 nM
- Selectivity fold (TYK2/JAK2) (pSTAT5/GM-CSF): >6993 fold

Structure (SMILES): CC(=O)Nc1cc(Nc2cccc(S(C)(=O)=O)n2)c(-c2cc(N3CCOCC3)n(C)n2)cn1 [Example O1, N-(5-(1-methyl-5-morpholino-1H-pyrazol-3-yl)-4-((6-(methylsulfonyl)pyridin-2-yl)amino)pyridin-2-yl)acetamide]
- IC50 [1]: 0.017 nM
- IC50 [2]: 0.414 nM
- IC50 (pSTAT5/GM-CSF): 1210 nM
- Selectivity fold (TYK2/JAK2) (pSTAT5/GM-CSF): 2929 fold

Structure (SMILES): COCCOc1cc(Nc2cc(NC(C)=O)ncc2-c2cc(N3CCOCC3)n(C)n2)nc(S(C)(=O)=O)c1 [Example O2, N-(4-((4-(2-methoxyethoxy)-6-(methylsulfonyl)pyridin-2-yl)amino)-5-(1-methyl-5-morpholino-1H-pyrazol-3-yl)pyridin-2-yl)acetamide]
- IC50 [1]: 0.016 nM
- IC50 [2]: 1.12 nM
- IC50 (pSTAT5/GM-CSF): 7010 nM
- Selectivity fold (TYK2/JAK2) (pSTAT5/GM-CSF): 6265 fold

Structure (SMILES): CC(=O)Nc1cc(Nc2cc(OCC(C)O)cc(S(C)(=O)=O)n2)c(-c2cc(N3CCOCC3)n(C)n2)cn1 (stereo not drawn) [Example O3, N-(4-((4-(2-hydroxypropoxy)-6-(methylsulfonyl)pyridin-2-yl)amino)-5-(1-methyl-5-morpholino-1H-pyrazol-3-yl)pyridin-2-yl)acetamide]
- IC50 [1]: 0.031 nM
- IC50 [2]: 6.86 nM
- IC50 (pSTAT5/GM-CSF): 8300 nM
- Selectivity fold (TYK2/JAK2) (pSTAT5/GM-CSF): 2109 fold

Structure (SMILES): CC(=O)Nc1cc(Nc2cc(OC(C)C)cc(S(C)(=O)=O)n2)c(-c2ccc3c(n2)OCCO3)cn1 [Example Q1, N-(5-(2,3-dihydro-[1,4]dioxino[2,3-b]pyridin-6-yl)-4-((4-isopropoxy-6-(methylsulfonyl)pyridine-2-yl)amino)pyridin-2-yl)acetamide]
- IC50 [1]: 0.023 nM
- IC50 [2]: 1.76 nM
- IC50 (pSTAT5/GM-CSF): > 10000 nM
- Selectivity fold (TYK2/JAK2) (pSTAT5/GM-CSF): >5681 fold

Structure (SMILES): CC(=O)Nc1cc(Nc2cc(OC(C)C)cc(S(C)(=O)=O)n2)c(-c2ccc3c(n2)OCO3)cn1 [Example Q2, N-(5-([1,3]dioxolo[4,5-b]pyridin-5-yl)-4-((4-isopropoxy-6-(methylsulfonyl)pyridin-2-yl)amino)pyridin-2-yl)acetamide]
- IC50 [1]: 0.021 nM
- IC50 [2]: 1.7 nM
- IC50 (pSTAT5/GM-CSF): > 10000 nM
- Selectivity fold (TYK2/JAK2) (pSTAT5/GM-CSF): >5882 fold

Structure (SMILES): CC(=O)Nc1cc(Nc2cc(C)cc(S(C)(=O)=O)n2)c(-c2ccc3c(n2)OCCO3)cn1 [Example Q3, N-(5-(2,3-dihydro-[1,4]dioxino[2,3-b]pyridin-6-yl)-4-((4-methyl-6-(methylsulfonyl)pyridin-2-yl)amino)pyridin-2-yl)acetamide]
- IC50 [1]: 0.023 nM
- IC50 [2]: 1.14 nM
- IC50 (pSTAT5/GM-CSF): > 10000 nM
- Selectivity fold (TYK2/JAK2) (pSTAT5/GM-CSF): >8771 fold

Structure (SMILES): CC(=O)Nc1cc(Nc2cc(OC(C)C)cc(S(C)(=O)=O)n2)c(-c2cc3c(cn2)NCCO3)cn1 [Example Q4, N-(5-(3,4-dihydro-2H-pyrido[4,3-b][1,4]oxazin-7-yl)-4-((4-isopropoxy-6-(methylsulfonyl)pyridin-yl)amino)pyridin-2-yl)acetamide]
- IC50 [1]: 0.037 nM
- IC50 [2]: 1.1 nM
- IC50 (pSTAT5/GM-CSF): > 10000 nM
- Selectivity fold (TYK2/JAK2) (pSTAT5/GM-CSF): >9090 fold

Structure (SMILES): CC(=O)Nc1cc(Nc2cc(OC(C)C)cc(S(C)(=O)=O)n2)c(-c2cc3n(n2)CCOC3)cn1 [Example Q6, N-(5-(6,7-dihydro-4H-pyrazolo[5,1-c][1,4]oxazin-2-yl)-4-((4-isopropoxy-6-(methylsulfonyl)pyridin-2-yl)amino)pyridin-2-yl)acetamide]
- IC50 [1]: 0.028 nM
- IC50 [2]: 0.45 nM
- IC50 (pSTAT5/GM-CSF): > 10000 nM
- Selectivity fold (TYK2/JAK2) (pSTAT5/GM-CSF): >22222 fold

Structure (SMILES): CC(=O)Nc1cc(Nc2cc(C)cc(S(C)(=O)=O)n2)c(-c2cc3c(cn2)OCCO3)cn1 [Example Q18, N-(5-(2,3-dihydro-[1,4]dioxino[2,3-c]pyridin-7-yl)-4-((4-methyl-6-(methylsulfonyl)pyridin-2-yl)amino)pyridin-2-yl)acetamide]
- IC50 [1]: 0.023 nM
- IC50 [2]: 0.91 nM
- IC50 (pSTAT5/GM-CSF): > 10000 nM
- Selectivity fold (TYK2/JAK2) (pSTAT5/GM-CSF): >10989 fold

Structure (SMILES): COCCOc1cc(Nc2cc(NC(C)=O)ncc2-c2cc3c(cn2)OCCO3)nc(S(C)(=O)=O)c1 [Example Q19, N-(5-(2,3-dihydro-[1,4]dioxino[2,3-c]pyridin-7-yl)-4-((4-(2-methoxyethoxy)-6-(methylsulfonyl)pyridin-2-yl)amino)pyridin-2-yl)acetamide]
- IC50 [1]: 0.025 nM
- IC50 [2]: 3.02 nM
- IC50 (pSTAT5/GM-CSF): > 10000 nM
- Selectivity fold (TYK2/JAK2) (pSTAT5/GM-CSF): >3311 fold

Structure (SMILES): CC(=O)Nc1cc(Nc2cc(C)cc(S(C)(=O)=O)n2)c(-c2cc3n(n2)CCOC3)cn1 [Example Q20, N-(5-(6,7-dihydro-4H-pyrazolo[5,1-c][1,4]oxazin-2-yl)-4-((4-methyl-6-(methylsulfonyl)pyridin-2-yl)amino)pyridin-2-yl)acetamide]
- IC50 [1]: 0.022 nM
- IC50 [2]: 0.16 nM
- IC50 (pSTAT5/GM-CSF): 1770 nM
- Selectivity fold (TYK2/JAK2) (pSTAT5/GM-CSF): 11043 fold

Structure (SMILES): CC(=O)Nc1cc(Nc2cc(C)cc(S(C)(=O)=O)n2)c(-c2ccc3c(n2)OCC(C)(C)O3)cn1 [Example Q21, N-(5-(2,2-dimethyl-2,3-dihydro-[1,4]dioxino[2,3-b]pyridin-6-yl)-4-((4-methyl-6-(methylsulfonyl)pyridin-2-yl)amino)pyridin-2-yl)acetamide]
- IC50 [1]: 0.037 nM
- IC50 [2]: 0.411 nM
- IC50 (pSTAT5/GM-CSF): 1570 nM
- Selectivity fold (TYK2/JAK2) (pSTAT5/GM-CSF): 3824 fold

Structure (SMILES): CC(=O)Nc1cc(Nc2cc(N3CCOCC3)cc(S(C)(=O)=O)n2)c(-c2ccc3c(n2)OCC(C)(C)O3)cn1 [Example Q22, N-(5-(2,2-dimethyl-2,3-dihydro-[1,4]dioxino[2,3-b]pyridin-6-yl)-4-((6-(methylsulfonyl)-4-morpholinopyridin-2-yl)amino)pyridin-2-yl)acetamide]
- IC50 [1]: 0.025 nM
- IC50 [2]: 0.584 nM
- IC50 (pSTAT5/GM-CSF): 3960 nM
- Selectivity fold (TYK2/JAK2) (pSTAT5/GM-CSF): 6779 fold

Structure (SMILES): CC(=O)Nc1cc(Nc2cc(C3CCOCC3)cc(S(C)(=O)=O)n2)c(-c2ccc3c(n2)OCC(C)(C)O3)cn1 [Example Q23, N-(5-(2,2-dimethyl-2,3-dihydro-[1,4]dioxino[2,3-b]pyridin-6-yl)-4-((6-(methylsulfonyl)-4-(tetrahydro-2H-pyran-4-yl)pyridin-2-yl)amino)pyridin-2-yl)acetamide]
- IC50 [1]: 0.028 nM
- IC50 [2]: 0.605 nM
- IC50 (pSTAT5/GM-CSF): 8100 nM
- Selectivity fold (TYK2/JAK2) (pSTAT5/GM-CSF): 13390 fold

Structure (SMILES): [2H]C([2H])([2H])Oc1cc(Nc2cc(NC(C)=O)ncc2-c2ccc3c(n2)OCC(C)(C)O3)nc(S(C)(=O)=O)c1 [Example Q24, N-(5-(2,2-dimethyl-2,3-dihydro-[1,4]dioxino[2,3-b]pyridin-6-yl)-4-((4-(methoxy-d3)-6-(methylsulfonyl)pyridin-2-yl)amino)pyridin-2-yl)acetamide]
- IC50 [1]: 0.033 nM
- IC50 [2]: 0.559 nM
- IC50 (pSTAT5/GM-CSF): 620 nM
- Selectivity fold (TYK2/JAK2) (pSTAT5/GM-CSF): 1109 fold

Structure (SMILES): COc1cc(S(C)(=O)=O)nc(Nc2cc(NC(C)=O)ncc2-c2ccc3c(n2)OCC(C)(C)O3)c1OC [Example Q26, N-(4-((3,4-dimethoxy-6-(methylsulfonyl)pyridin-2-yl)amino)-5-(2,2-dimethyl-2,3-dihydro-[1,4]dioxino[2,3-b]pyridin-6-yl)pyridin-2-yl)acetamide]
- IC50 [1]: 0.032 nM
- IC50 [2]: 1.53 nM
- IC50 (pSTAT5/GM-CSF): 700 nM
- Selectivity fold (TYK2/JAK2) (pSTAT5/GM-CSF): 457 fold

Structure (SMILES): CC(=O)Nc1cc(Nc2cncc(S(C)(=O)=O)n2)c(-c2ccc3c(n2)OC(C)(C)CO3)cn1 [Example Q28, N-(5-(3,3-dimethyl-2,3-dihydro-[1,4]dioxino[2,3-b]pyridine-6-yl)-4-((6-(methylsulfonyl)pyrazin-2-yl)amino)pyridine-2-yl)acetamide]
- IC50 [1]: 0.026 nM
- IC50 [2]: 0.329 nM
- IC50 (pSTAT5/GM-CSF): > 10000 nM
- Selectivity fold (TYK2/JAK2) (pSTAT5/GM-CSF): >30395 fold
